Measured values as given in ChEMBL document CHEMBL4359829, “Straightforward synthesis and biological evaluation as topoisomerase I inhibitors and antiproliferative agents of hybrid Chromeno[4,3-b][1,5]Naphthyridines and Chromeno[4,3-b][1,5]Naphthyridin-6-ones” (Eur J Med Chem, 2019).

Assays:
SK-OV-3 = test: Antiproliferative activity against human SKOV3 cells incubated for 48 hrs by CCK8 assay; format: functional, cell-based; settings: SK-OV-3, 48 h
A549 = test: Antiproliferative activity against human A549 cells incubated for 48 hrs by CCK8 assay; format: functional, cell-based; settings: A549, 48 h
[1] = target: T1, DNA topoisomerase 1 (Homo sapiens) (UniProt P11387); test: Inhibition of recombinant human Top1 expressed in Saccharomyces cerevisiae null strain RS190 assessed as decrease in relaxation of supercoiled plasmid DNA at 100 uM using supercoiled plasmid DNA as substrate incubated for 3 min by red staining based DNA relaxation assay relative to camptothecin
T1 sequence (whole entry): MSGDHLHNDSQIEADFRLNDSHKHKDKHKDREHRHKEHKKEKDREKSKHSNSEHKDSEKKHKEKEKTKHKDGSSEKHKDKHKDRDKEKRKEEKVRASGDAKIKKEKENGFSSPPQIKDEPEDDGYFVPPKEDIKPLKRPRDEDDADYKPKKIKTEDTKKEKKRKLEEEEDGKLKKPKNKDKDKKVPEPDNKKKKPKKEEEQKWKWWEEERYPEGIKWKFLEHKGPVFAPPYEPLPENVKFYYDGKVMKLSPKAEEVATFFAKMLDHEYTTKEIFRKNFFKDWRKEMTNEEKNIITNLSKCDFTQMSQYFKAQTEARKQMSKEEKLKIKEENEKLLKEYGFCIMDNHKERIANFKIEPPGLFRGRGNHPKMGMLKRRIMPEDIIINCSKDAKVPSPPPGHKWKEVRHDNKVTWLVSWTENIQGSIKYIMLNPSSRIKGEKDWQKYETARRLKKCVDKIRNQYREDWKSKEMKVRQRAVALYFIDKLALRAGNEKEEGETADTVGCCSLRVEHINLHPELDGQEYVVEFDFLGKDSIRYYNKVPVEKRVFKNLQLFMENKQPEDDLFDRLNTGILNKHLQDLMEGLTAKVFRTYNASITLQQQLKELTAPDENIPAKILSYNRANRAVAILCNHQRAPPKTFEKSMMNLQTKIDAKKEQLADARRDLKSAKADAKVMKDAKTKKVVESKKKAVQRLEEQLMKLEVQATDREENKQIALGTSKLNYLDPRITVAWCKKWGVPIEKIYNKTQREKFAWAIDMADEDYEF

[2] = target: T1, DNA topoisomerase 1 (Homo sapiens); test: Inhibition of recombinant human Top1 expressed in Saccharomyces cerevisiae null strain RS190 assessed as decrease in relaxation of supercoiled plasmid DNA at 100 uM using supercoiled plasmid DNA as substrate incubated for 1 min by red staining based DNA relaxation assay relative to camptothecin
[3] = target: T1, DNA topoisomerase 1 (Homo sapiens); test: Inhibition of recombinant human Top1 expressed in Saccharomyces cerevisiae null strain RS190 assessed as decrease in relaxation of supercoiled plasmid DNA at 100 uM using supercoiled plasmid DNA as substrate incubated for 15 sec by red staining based DNA relaxation assay relative to camptothecin
MRC5 = test: Cytotoxicity against human MRC5 cells incubated for 48 hrs by CCK8 assay; format: cell-based; settings: MRC5, 48 h

SMILES	IC50 (SK-OV-3) [µM]	IC50 (A549) [µM]	inhibition [1] [%]	inhibition [2] [%]	inhibition [3] [%]	IC50 (MRC5) [µM]
COc1ccc2c(n1)[C@@H](c1ccccc1)[C@@H]1C(=O)Oc3ccccc3[C@H]1N2 (relative stereo)	> 50	> 50	4	4	4	> 50
O=c1oc2ccccc2c2nc3cccnc3c(-c3ccccc3)c12	> 50	9.03	2	2	25	> 50
O=C1Oc2ccccc2[C@H]2Nc3cccnc3[C@@H](c3ccccc3)[C@H]12 (relative stereo)	> 50	25.4	5	7	5	> 50
O=C1Oc2ccc(F)cc2[C@H]2Nc3cccnc3[C@@H](c3ccccc3)[C@H]12 (relative stereo)	> 50	> 50	2	25	30	> 50
Cc1ccc2c(c1)[C@H]1Nc3cccnc3[C@@H](c3ccccc3)[C@@H]1CO2 (relative stereo)	12.7	7.25	19	69	70	> 50
O=C1Oc2ccccc2[C@H]2Nc3ccc(Br)nc3[C@@H](c3ccccc3)[C@H]12 (relative stereo)	> 50	> 50	4	4	4	> 50
COc1ccc2c(n1)[C@@H](c1ccccc1)[C@@H]1COc3ccccc3[C@H]1N2 (relative stereo)	> 50	5.43	12	26	81	> 50
Fc1ccc2c(c1)[C@H]1Nc3cccnc3[C@@H](c3ccccc3)[C@@H]1CO2 (relative stereo)	> 50	11.3	1	1	2	> 50
COc1ccc2nc3c(c(-c4ccccc4)c2n1)c(=O)oc1ccccc13	> 50	> 50	12	12	72	> 50
c1ccc([C@@H]2c3ncccc3N[C@@H]3c4ccccc4OC[C@@H]23)cc1 (relative stereo)	1.75	1.03	1	4	5	> 50
O=c1oc2ccc(F)cc2c2nc3cccnc3c(-c3ccccc3)c12	> 50	> 50	2	2	26	> 50
O=c1oc2ccccc2c2nc3ccc(Br)nc3c(-c3ccccc3)c12	> 50	29	4	4	4	> 50

The next lines start with results.

IC50 (SK-OV-3) [µM]	IC50 (A549) [µM]	inhibition [1] [%]	inhibition [2] [%]	inhibition [3] [%]	SMILES	IC50 (MRC5) [µM]
> 50	> 50	4	4	4	Brc1ccc2nc3c(c(-c4ccccc4)c2n1)COc1ccccc1-3	> 50
> 50	> 50	2	14	30	c1ccc(-c2c3c(nc4cccnc24)-c2ccccc2OC3)cc1	> 50
> 50	> 50	2	2	2	Fc1ccc2c(c1)-c1nc3cccnc3c(-c3ccccc3)c1CO2	> 50
> 50	11.7	15	16	86	COc1ccc2nc3c(c(-c4ccccc4)c2n1)COc1ccccc1-3	> 50
> 50	> 50	2	2	2	Cc1ccc2c(c1)-c1nc3cccnc3c(-c3ccccc3)c1CO2	> 50
> 50	> 50	6	6	84	Fc1ccc(-c2c3c(nc4cccnc24)-c2ccccc2OC3)cc1F	> 50
> 50	17.9	29	30	29	COc1ccc(-c2c3c(nc4cccnc24)-c2ccccc2OC3)cc1	> 50
